Entries after “also recorded” stand apart in the source; their conditions may differ. Where two headings read alike, the source gives them in different places.
Experiments:
WI-38 cells [1] = assay: Propidium iodide (PI) cell-death imaging upon H2O2 stress; format: cell-based, human; settings: for Assay 7: H2O2-resistant, at 10 uM, validated by propidium iodide (PI) cell-death imaging: w/H2O2, 3 hrs/4 hrs/5 hrs, YES/NO; for cytotoxicity at 10 µM: Homo sapiens, WI-38
C. elegans = format: in vivo, Caenorhabditis elegans; settings: in vivo
How it was run: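 Worms treated in liquid with compounds in 96-well plates (4 wells each, FUdR to block progeny, 0.2% DMSO controls); H2O2 at 500 μM final added on day 4 of adulthood and viability scored daily.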

FOXO3 = assay: qPCR analysis of FOXO3-regulated genes; format: cell-based, human; settings: for fold induction at 10 µM: Homo sapiens; for K = Sestrin induction: score
How it was run: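 WI-38 cells treated with compound at 10 μM for 24 h, followed by Cells-to-Ct RT-qPCR of FOXO3 target genes normalised to B2M, PPIA and GAPDH. FOXO3 or NRF2 dependence tested by prior 10 nM siRNA knockdown (36 h transfection, compound added ~24 h after replating).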

[2] = Summary score for characterization of 38 core set hits; settings: for D = Triple resistant: 2-point score, multiplex resistance (cadmium, MMS, H2O2); for S = Sum of Negative scores: human; for C = H2O2- & Cd-resistant: score, resistance to both H2O2 and cadmium
How it was run: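 Composite score. 2 pts each: multiplex stress resistance, FOXO3/NRF2 activation, mTOR down-regulation. Worm lifespan (4–6 independent trials): 0 = no obvious effect, 1 = extension in 2 trials, 2 = extension in >2 trials. −1 for DNA damage and/or cytotoxicity in cultured human cells.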

[3] = system: human dermal fibroblast (HDF) primary cells; assay: H2O2-resistance in primary human dermal fibroblasts; format: cell-based; settings: for fold induction at 10 µM: Homo sapiens; for Assay 6: H2O2-resistant, at 10 uM, human dermal fibroblast (HDF) primary cells: YES/NO
WI-38 cells [4] = settings: for Assay 1: H2O2-resistant: YES/NO, if NO, possibly due to repeated freezing/thawing of stocks
[5] = pre-treatment at 10 uM, 3.5 hours of H2O2, DMSO control 27.4% ± 6.5%, */**/*** = reduced by one/two/three standard deviations, read-out: Percentage of propidium iodide-positive dead cells (under H2O2 stress treatment), at 10 uM
[6] = 24 h, Assay 10(m), at 10 uM, qPCR, read-out: Induction of FOXO3-regulated genes: CAT normalized fold-change
[7] = 24 h, Assay 10(m), at 10 uM, qPCR, read-out: Induction of FOXO3-regulated genes: GADD45A normalized fold-change
[8] = 10 μM, 24 hrs, WI-38 cells, qPCR, normalized to B2M, n = 4, read-out: CAT expression, normalized fold change (FOXO3-regulated gene)
[9] = 10 μM, 24 hrs, WI-38 cells, qPCR, normalized to B2M, n = 4, read-out: GADD45A expression, normalized fold change (FOXO3-regulated gene)
[10] = WI-38 cells, 10 μM, 24 hrs, n=4, qPCR normalized by B2M, read-out: DDB1 Normalized fold change
[11] = WI-38 cells, 10 μM, 24 hrs, n=4, qPCR normalized by B2M, read-out: GADD45A Normalized fold change
[12] = WI-38 cells, 10 μM, 24 hrs, n=4, qPCR normalized by B2M, read-out: SESN1 Normalized fold change
[13] = fold change, qPCR, WI-38 cells, 10 μM, 24 hrs, read-out: Summary of effects on FOXO3-regulated genes: CAT
[14] = fold change, qPCR, WI-38 cells, 10 μM, 24 hrs, read-out: Summary of effects on FOXO3-regulated genes: GADD45A
[15] = qPCR, WI-38 cells, 10 μM, n=4, 24 hrs, normalized by B2M, read-out: CAT Normalized fold change
[16] = qPCR, WI-38 cells, 10 μM, n=4, 24 hrs, normalized by B2M, read-out: SOD2 Normalized fold change
[17] = qPCR, WI-38 cells, 10 μM, n=4, 24 hrs, normalized by B2M, read-out: TXNIP Normalized fold change
[18] = WI-38 cells, 10 μM, (*) = compromised ability to protect cells from H2O2, could be due to stability issue
[19] = asterisks indicate the loss of the ability to protect cells from H2O2 over time
[20] = derived from dose response curves, 0.6-20 uM, H2O2-resistance of WI-38 cells
[21] = read-out: Est. ED50, dose response 0.6-20 μM, H2O2-resistance

Structure (SMILES) | Assay 7: H2O2-resistant, at 10 uM, validated by propidium iodide (PI) cell-death imaging (WI-38 cells [1]; 10 uM) | cytotoxicity at 10 µM (WI-38 cells [1]; [5]) [%] | L = H2O2-resistance in worms (C. elegans) | N = H2O2-resistance in woms (C. elegans) | E = Potential FOXO3 Activation (FOXO3; 2-point score) | fold induction at 10 µM (FOXO3; [6]) | fold induction at 10 µM (FOXO3; [7]) | fold induction at 10 µM (FOXO3; [8]) | fold induction at 10 µM (FOXO3; [9]) | fold induction at 10 µM (FOXO3; [10]) | fold induction at 10 µM (FOXO3; [11]) | fold induction at 10 µM (FOXO3; [12]) | fold induction at 10 µM (FOXO3; [13]) | fold induction at 10 µM (FOXO3; [14]) | fold induction at 10 µM (FOXO3; [15]) | fold induction at 10 µM (FOXO3; [16]) | fold induction at 10 µM (FOXO3; [17]) | K = Sestrin induction (FOXO3) | E = Potential FOXO3 Activation (FOXO3; summary score) | D = Triple resistant [2] | other results
O=C(c1ccc([N+](=O)[O-])o1)N1CCc2ccccc21 [O13] | YES | 4.8 | 0 | 0 | 0 | 1.33 | 1.2 | 1.33 | 1.2 | 1.27 | 1.2 | 1.23 | 1.33 | 1.2 | 1.32 | 1.09 | 0.907 | 0 | 0 | 0 | cytotoxicity at 10 µM (WI-38 cells [1]; H2O2 3 hrs, 10 uM, n = 6, negative control 5.44% ± 0.79%, read-out: Percentage of propidium iodide-positive dead cells (under H2O2 stress treatment), 3 hrs): 1.13%; cytotoxicity at 10 µM (WI-38 cells [1]; H2O2 4 hrs, 10 uM, n = 6, negative control 16.81% ± 1.42%, read-out: Percentage of propidium iodide-positive dead cells (under H2O2 stress treatment), 4 hrs): 2.56%; cytotoxicity at 10 µM (WI-38 cells [1]; H2O2 5 hrs, 10 uM, n = 6, negative control 22.50% ± 1.53%, read-out: Percentage of propidium iodide-positive dead cells (under H2O2 stress treatment), 5 hrs): 7.03%; H2O2-resistance assay, 1st experiment (C. elegans): YES;; Induction of at least two of five FOXO3-regulated genes (SOD2, GADD45A, CAT, DDB1, TXNIP) (FOXO3; 10 μM, 24 hrs, WI-38): significant induction; also recorded: significant, induction; fold induction at 10 µM (FOXO3; 24 h, Assay 10(m), at 10 uM, qPCR, read-out: Induction of FOXO3-regulated genes: DDB1 normalized fold-change): 1.27; fold induction at 10 µM (FOXO3; 10 μM, 24 hrs, WI-38 cells, qPCR, normalized to B2M, n = 4, read-out: DDB1 expression, normalized fold change (FOXO3-regulated gene)): 1.27; fold induction at 10 µM (FOXO3; fold change, qPCR, WI-38 cells, 10 μM, 24 hrs, read-out: Summary of effects on FOXO3-regulated genes: DDB1): 1.27; S = Sum of Negative scores [2]: 0; C = H2O2- & Cd-resistant [2]: 0; fold induction at 10 µM ([3]; Experiment 1, HDF cells, read-out: Experiment 1, HDF cells (under H2O2 stress treatment), at 10 uM (fold change)): 11.2; fold induction at 10 µM ([3]; Experiment 2, HDF cells, read-out: Experiment 2, HDF cells (under H2O2 stress treatment), at 10 uM (fold change)): 60.5; Assay 6: H2O2-resistant, at 10 uM, human dermal fibroblast (HDF) primary cells [3]: YES; H2O2-resistant (WI-38 cells [4]; [18]): YES; No H2O2 stress treatment, at 10 uM (fold change) (WI-38 cells [4]; WI-38 cells, no H2O2 stress, 10 uM, normalized ATP measurement): 1.09 fold change; Assay 1: H2O2-resistant (WI-38 cells [4]): YES; H2O2-resistant (WI-38 cells [4]; [19]): YES; EC50 (WI-38 cells [4]; [20]): 10.1 µM; EC50 (WI-38 cells [4]; [21]): 10.1 µM
O=C(Nc1ccc(Cl)c(Cl)c1)c1ccc([N+](=O)[O-])o1 [Gr-1G] | YES | 34.4 | 0 | 0 | 0 | 1.35 | 0.6 | 1.35 | 0.6 | 1.14 | 0.597 | 1.38 | 1.35 | 0.6 | 1.35 | 0.756 | 1.03 | 0 | 0 | 0 | SOD2 expression, normalized fold change (FOXO3-regulated gene) (FOXO3; 10 μM, 24 hrs, WI-38 cells, qPCR, normalized to B2M, n = 4): SOD2 0.76, fold; fold induction at 10 µM (FOXO3; 24 h, Assay 10(m), at 10 uM, qPCR, read-out: Induction of FOXO3-regulated genes: SOD2 normalized fold-change): 0.76; Summary of effects on FOXO3-regulated genes: SOD2 (FOXO3; fold change, qPCR, WI-38 cells, 10 μM, 24 hrs): SOD2 0.76,; S = Sum of Negative scores [2]: 1; C = H2O2- & Cd-resistant [2]: 1; Assay 6: H2O2-resistant, at 10 uM, human dermal fibroblast (HDF) primary cells [3]: YES; H2O2-resistant (WI-38 cells [4]; [18]): YES; Assay 1: H2O2-resistant (WI-38 cells [4]): YES; H2O2-resistant (WI-38 cells [4]; [19]): YES; EC50 (WI-38 cells [4]; [20]): 4.8 µM; EC50 (WI-38 cells [4]; [21]): 2.95 µM
